From BindingDB's records for doi:10.1016/S0960-894X(98)00544-7 (University of Ferrara, 1999)

Assay: Inhibition of Ha-ras polymerase-chain reaction product

IC50: > 300 µM
SMILES: COC(=O)CCOc1cc2c(cc1OC)C(=O)N1CCC[C@H]1C=N2 [3-((S)-7-Methoxy-5-oxo-2,3,5,11a-tetrahydro-1H-benzo[e]pyrrolo[1,2-a][1,4]diazepin-8-yloxy)-propionic acid methyl ester]
